Test results taken from patent US12241021B2, “Method for fracking of simulation of hydrocarbon bearing formation” (Fluid Energy Group Ltd., priority 2018, dated 2025).

Experiment: Corrosion testing of 316 steel coupons with acidic fluids
Details: for corrosion protection when used separately: alkyne alcohol or cinnamaldehyde alone in the inhibitor
Excerpt: Corrosion inhibitor compositions according to preferred embodiments of the present invention were exposed to corrosion testing. Various steel grades (stainless steel and carbon steel) were subjected to acid compositions comprising corrosion inhibitors according to the present invention against known corrosion inhibitors to the listed compositions for various periods of time at varying temperatures. A desirable corrosion inhibition result was one where the lb/ft2 corrosion number is at or below 0.05. More preferably, that number is at or below 0.02.
33% HCl; MEA in a 5.5:1 ratio and 50% HCl; MEA in a 5.5:1 ratio indicate the volume amount of the original concentration of a stock solution containing HCl and Monoethanolamine in a ratio of 5.5:1. The HCl loading of a 33% HCl; MEA in a 5.5:1 ratio is approximately 6.5% HCl. The HCl loading of 50% HCl; MEA in a 5.5:1 ratio is approximately 10% HCl.

Compound	corrosion protection when used separately	film forming, protection of stainless steel (at these temperatures (90° C. to 120° C.))	prevention of pitting (higher temperatures (even 110° C. to 120° C.))
O=CC=Cc1ccccc1 [cinnamaldehyde]	did not provide corrosion protection sufficient	effective film former	–
C#CCO [propargyl alcohol]	did not provide corrosion protection sufficient	–	–
CC(C)=CCCC(C)=CC=O (racemic) [Citral, (±)-3,7-Dimethyl-2,6-octadienal]	–	–	some effectiveness for the prevention of pitting
